Test results taken from ChEMBL document CHEMBL3616404, “Expanding the chemical space of human serine racemase inhibitors” (Bioorg Med Chem Lett, 2015).

Key:
Serine racemase [1] = molecular target: T1, Serine racemase (Homo sapiens, UniProt Q9GZT4); test: Inhibition of hexa-His-tagged purified human recombinant serine racemase expressed in Escherichia coli BL21 Codonplus (DE3)-RIL cells assessed as reduction in beta-elimination of L-serine at by spectrophotomtery
T1 sequence (Q9GZT4 whole entry): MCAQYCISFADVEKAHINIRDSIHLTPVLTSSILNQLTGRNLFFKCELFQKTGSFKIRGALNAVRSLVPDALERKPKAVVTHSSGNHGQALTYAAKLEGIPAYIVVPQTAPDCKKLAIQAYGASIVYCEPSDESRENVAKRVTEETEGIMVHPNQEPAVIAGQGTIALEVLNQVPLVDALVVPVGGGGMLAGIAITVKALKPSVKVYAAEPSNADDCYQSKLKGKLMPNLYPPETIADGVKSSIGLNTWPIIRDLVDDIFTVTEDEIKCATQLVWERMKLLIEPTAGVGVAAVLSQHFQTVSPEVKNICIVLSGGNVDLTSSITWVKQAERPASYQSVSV

[2] = molecular target: T2, Serine racemase (Homo sapiens) (UniProt Q9GZT4); test: Inhibition of hexa-His-tagged purified human recombinant serine racemase expressed in Escherichia coli BL21 Codonplus (DE3)-RIL cells assessed as reduction in beta-elimination of L-serine at 5 mM by spectrophotomtery
T2 sequence (whole entry): T1 sequence (Q9GZT4 whole entry)

Serine racemase [3] = molecular target: T1, Serine racemase; test: Inhibition of human recombinant serine racemase expressed in Escherichia coli Rosetta 2 (DE3) cells using L-serine as substrate by horseradish peroxidase based couple assay
[4] = molecular target: T2, Serine racemase (Homo sapiens); conditions: 330 uM
Description: Inhibition of hexa-His-tagged purified human recombinant serine racemase expressed in Escherichia coli BL21 Codonplus (DE3)-RIL cells assessed as reduction in beta-elimination of L-serine at 330 uM by spectrophotomtery

[5] = molecular target: T2, Serine racemase (Homo sapiens); test: Inhibition of hexa-His-tagged purified human recombinant serine racemase expressed in Escherichia coli BL21 Codonplus (DE3)-RIL cells assessed as reduction in beta-elimination of L-serine at 2.8 mM by spectrophotomtery

SMILES	Ki (Serine racemase [1]) [mM]	inhibition [2] [%]	Ki (Serine racemase [3]) [mM]	inhibition [4] [%]	inhibition [5] [%]
O=C(O)CC1(C(=O)O)CN2CCC1CC2 (stereo unspecified)	> 10	2			
O=C(O)CC(=O)O [MALONIC ACID]	0.066		0.059	76	
CN1C(=O)C(=CNC(CC(=O)O)C(=O)O)C(=O)N(C)C1=O (stereo unspecified)	1.7	66			
O=C(O)CC(CC(=O)O)C(=O)O [TRICARBALLYLIC ACID]	1.3				59
O=C(O)COCC(=O)Cc1cc(SCCO)cc([N+](=O)[O-])c1	4.5				29
O=C(O)NCS(=O)(=O)c1cccs1	1.5	70			
O=[N+]([O-])c1cccnc1SCC(O)CO (stereo unspecified)					0
CC[C@H](NS(=O)(=O)c1ccc([N+](=O)[O-])cc1)C(=O)O	1.5	70			
